Test [1] relates to COX2. The experiment in a line: Western blotting of COX2 expression in bladder cancer cells. It is filed as cell-based, human. As for the experimental part:
Whole cell lysates were extracted using RIPA buffer (Thermo Scientific) supplemented with 10 μL/mL Halt™ Protease Inhibitor Cocktail Kit (Life Technologies) and 30 μL/mL Halt™ Phosphatase Inhibitor Cocktail Kit (Life Technologies). The protein concentrations were determined using a Pierce™ BCA Protein Assay Kit (Life Technologies), and the protein were separated on. NuPAGE 4-12% Bis-Tris Gel (Life Technologies) according to the manufacturer's protocol. COX2 (D5H5), NANOG (D73G4), OCT4 (D7O5Z), CD133 (A3G6K), Snail (C15D3), ZEBI (D80D3), Vimentin (D21H3), CDH2 (D4R1H), CDH1 (24E10), p-EGFR (D7A5), EGFR (D38B1), p-AKT (D9E), AKT (cat #, 9272), p-ERK (D13.14.4E), ERK (137F5), p-YAP1 (D9W2I), p-Src (cat #, 2101), Src (36D10), DNMT1 (D63A6), DNMT3A (D23G1), and DNMT3B (D7070) antibodies were obtained from Cell Signaling Technology (Danvers, Mass., USA), except for SOX2 (EPR3131; Abeam, Cambridge, USA), YAP1 (ab52771; Abeam), CD24 (cat #, AF5247-SP; R&D Systems, Minneapolis USA) and β-actin (A2228; Sigma-Aldrich). Secondary horseradish peroxidase (HRP)-conjugated antibodies were obtained from Cell Signaling Technology, and chemiluminescent detection of HRP-labeled antibodies was performed using Amersham ECL Prime Western Blotting Detection Reagent (GE Healthcare, Piscataway, USA). As loading control, β-actin was used.

For test [2], the system named is let-7 host gene MIRLET7BHG promoter. The experiment in a line: Bisulfite sequencing of let-7 host gene promoter methylation. The class given is cell-based, human. To be noted: 10 μM celecoxib, 2 μM PGE2, or 5 μM 5-Aza-dC for 5 days. Here is the method: Cell pellets were digested with 1% sodium dodecyl sulfate and 50 μg/mL proteinase K (Roche, Nutley, USA) at 48° C. overnight. Isolation of genomic DNA from cell lines was performed with the phenol-chloroform extraction protocol followed by ethanol precipitation. Bisulfite treatment was conducted using an EpiTect Bisulfite K ft (QIAGEN, Valencia, USA), and was subsequently amplified via PCR using primers as shown in the following table. PCR products were purified using the QIAquick Gel Extraction kit (Qiagen), and sequenced by Genewiz DNA sequencing service (Genewiz, South Plainfield, USA). The data were analyzed using the Sequence Scanner v1.0 software (Life technologies). A methylation frequency of ≥50% of total CpG sites within the amplified region was considered “methylation-positive”. For demethylation, cells ([…]) dissolved in 50% acetic acid or were mock-treated with phosphate buffered saline (PBS) including the same amount of acetic acid every 24 hours for 5 days. When combined with the histone deacetylase inhibitor TSA (Sigma), 300 nmol/L TSA was added to the medium for the final 24 hours.

Results on two molecules are retold here after patent US20220184037A1, “PHARMACEUTICAL AGENTS TARGETING CANCER STEM CELLS” (THE JOHNS HOPKINS UNIVERSITY, priority 2020, published 2022).

For the molecule `C#Cc1cccc(Nc2ncnc3cc(OCCOC)c(OCCOC)cc23)c1` [erlotinib, Erlotinib], the COX2 expression result in test [1] (basal-type cells, 1 μM erlotinib) is listed as “increased COX2 expression”. Moreover, the “levels of COX2 expression” value in test [1] (non-basal-type cells, erlotinib) was “did not affect”. `Cc1ccc(-c2cc(C(F)(F)F)nn2-c2ccc(S(N)(=O)=O)cc2)cc1` [celecoxib, Celecoxib]: the “promoter methylation of the let-7 host gene” value in test [2] is “demethylated”.
